Reference: publication PMC9186362, “Design and biological evaluation of substituted 5,7-dihydro-6H-indolo[2,3-c]quinolin-6-one as novel selective Haspin inhibitors” (Journal of Enzyme Inhibition and Medicinal Chemistry, 2022)

What was measured:
Test in all cases: SelectScreen ZLYTE
Format in all cases: biochemical
ABL1 = target: T1, ABL1 (Homo sapiens, UniProt P00519); conditions: ATP Km, read-out: Percentage of inhibition
T1 construct: purchased Life Technologies (SelectScreen Whole Panel service)
In short: (§1)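 In a large-scale selectivity screen, each kinase was exposed to the inhibitor at 1 μM, and the read-out was expressed as percentage inhibition.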

ADRBK2 (GRK3) = target: T2, ADRBK2 (GRK3) (Homo sapiens, UniProt P35626); conditions: ATP Km, read-out: Percentage of inhibition
T2 construct: purchased Life Technologies (SelectScreen Whole Panel)
In short: as §1

AMPK (A1/B2/G2) = AMPK (A1/B2/G2) (Homo sapiens, UniProt Q13131); conditions: ATP Km, read-out: Percentage of inhibition
In short: as §1

AMPK (A1/B2/G3) = AMPK (A1/B2/G3) (Homo sapiens, UniProt Q13131); conditions: ATP Km, read-out: Percentage of inhibition
In short: as §1

AMPK (A2/B1/G2) = AMPK (A2/B1/G2) (Homo sapiens, UniProt P54646); conditions: ATP Km, read-out: Percentage of inhibition
In short: as §1

AURKB (Aurora B) = target: T3, AURKB (Aurora B) (Homo sapiens, UniProt Q96GD4); conditions: ATP Km, read-out: Percentage of inhibition
T3 construct: purchased Life Technologies
T3 sequence (Q96GD4 whole entry): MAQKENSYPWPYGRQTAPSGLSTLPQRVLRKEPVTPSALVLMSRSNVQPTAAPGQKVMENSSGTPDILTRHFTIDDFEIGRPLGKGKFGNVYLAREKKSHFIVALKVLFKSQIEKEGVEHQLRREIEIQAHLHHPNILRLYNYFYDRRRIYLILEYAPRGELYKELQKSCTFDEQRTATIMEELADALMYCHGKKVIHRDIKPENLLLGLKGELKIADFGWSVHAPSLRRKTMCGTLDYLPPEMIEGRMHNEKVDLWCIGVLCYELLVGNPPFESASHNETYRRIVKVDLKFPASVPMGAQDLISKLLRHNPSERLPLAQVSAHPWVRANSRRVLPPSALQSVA
In short: as §1

AXL = target: T4, AXL (Homo sapiens, UniProt P30530); conditions: ATP Km, read-out: Percentage of inhibition
T4 construct: purchased Life Technologies
In short: as §1

BRAF = target: T5, BRAF (Homo sapiens, UniProt P15056); conditions: ATP 100 µM, read-out: Percentage of inhibition
T5 construct: purchased Life Technologies (SelectScreen Whole Panel)
T5 sequence (P15056 whole entry): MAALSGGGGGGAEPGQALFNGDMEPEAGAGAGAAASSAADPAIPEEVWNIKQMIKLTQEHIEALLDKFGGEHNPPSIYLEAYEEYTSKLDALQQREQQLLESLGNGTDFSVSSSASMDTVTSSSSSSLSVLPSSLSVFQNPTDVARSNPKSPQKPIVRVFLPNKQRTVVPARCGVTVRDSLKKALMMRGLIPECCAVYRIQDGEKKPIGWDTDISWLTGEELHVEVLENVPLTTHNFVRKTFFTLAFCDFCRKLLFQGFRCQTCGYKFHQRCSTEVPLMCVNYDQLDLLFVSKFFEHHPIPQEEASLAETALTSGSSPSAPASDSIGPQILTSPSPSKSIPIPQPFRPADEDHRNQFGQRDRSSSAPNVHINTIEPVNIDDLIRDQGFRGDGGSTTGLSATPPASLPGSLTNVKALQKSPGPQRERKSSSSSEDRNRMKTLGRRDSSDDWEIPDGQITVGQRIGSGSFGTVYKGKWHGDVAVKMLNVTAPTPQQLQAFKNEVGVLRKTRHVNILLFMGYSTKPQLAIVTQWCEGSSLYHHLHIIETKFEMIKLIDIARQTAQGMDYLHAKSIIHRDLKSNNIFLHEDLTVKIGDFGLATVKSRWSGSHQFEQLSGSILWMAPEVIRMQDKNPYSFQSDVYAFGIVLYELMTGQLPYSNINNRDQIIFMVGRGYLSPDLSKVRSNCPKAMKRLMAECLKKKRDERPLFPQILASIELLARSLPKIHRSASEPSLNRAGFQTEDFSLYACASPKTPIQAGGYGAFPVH
In short: as §1

CAMK1D (CaMKI delta) = target: T6, CAMK1D (CaMKI delta) (Homo sapiens, UniProt Q8IU85); conditions: ATP Km, read-out: Percentage of inhibition
T6 construct: purchased Life Technologies (SelectScreen)
In short: as §1

CAMK2D (CaMKII delta) = target: T7, CAMK2D (CaMKII delta) (Homo sapiens, UniProt Q13557); conditions: ATP Km, read-out: Percentage of inhibition
T7 construct: purchased Life Technologies (SelectScreen Whole Panel)
In short: as §1

CSF1R (FMS) = CSF1R (FMS) (Homo sapiens, UniProt P07333); conditions: ATP Km, read-out: Percentage of inhibition
In short: as §1

EPHA8 = target: T8, EPHA8 (Homo sapiens, UniProt P29322); conditions: ATP Km, read-out: Percentage of inhibition
T8 construct: purchased Life Technologies (SelectScreen Whole Panel service)
In short: as §1

EPHB1 = target: T9, EPHB1 (Homo sapiens, UniProt P54762); conditions: ATP Km, read-out: Percentage of inhibition
T9 construct: purchased Life Technologies (SelectScreen Whole Panel)
In short: as §1

FGFR2 N549H = target: T10, FGFR2 N549H (Homo sapiens, UniProt P21802, N549H); conditions: ATP Km, read-out: Percentage of inhibition
T10 construct: purchased Life Technologies (SelectScreen service)
In short: as §1

FGFR3 V555M = target: T11, FGFR3 V555M (Homo sapiens, UniProt P22607, V555M); conditions: ATP Km, read-out: Percentage of inhibition
T11 construct: purchased Life Technologies (SelectScreen Whole Panel service)
T11 sequence (P22607 23-806 V555M): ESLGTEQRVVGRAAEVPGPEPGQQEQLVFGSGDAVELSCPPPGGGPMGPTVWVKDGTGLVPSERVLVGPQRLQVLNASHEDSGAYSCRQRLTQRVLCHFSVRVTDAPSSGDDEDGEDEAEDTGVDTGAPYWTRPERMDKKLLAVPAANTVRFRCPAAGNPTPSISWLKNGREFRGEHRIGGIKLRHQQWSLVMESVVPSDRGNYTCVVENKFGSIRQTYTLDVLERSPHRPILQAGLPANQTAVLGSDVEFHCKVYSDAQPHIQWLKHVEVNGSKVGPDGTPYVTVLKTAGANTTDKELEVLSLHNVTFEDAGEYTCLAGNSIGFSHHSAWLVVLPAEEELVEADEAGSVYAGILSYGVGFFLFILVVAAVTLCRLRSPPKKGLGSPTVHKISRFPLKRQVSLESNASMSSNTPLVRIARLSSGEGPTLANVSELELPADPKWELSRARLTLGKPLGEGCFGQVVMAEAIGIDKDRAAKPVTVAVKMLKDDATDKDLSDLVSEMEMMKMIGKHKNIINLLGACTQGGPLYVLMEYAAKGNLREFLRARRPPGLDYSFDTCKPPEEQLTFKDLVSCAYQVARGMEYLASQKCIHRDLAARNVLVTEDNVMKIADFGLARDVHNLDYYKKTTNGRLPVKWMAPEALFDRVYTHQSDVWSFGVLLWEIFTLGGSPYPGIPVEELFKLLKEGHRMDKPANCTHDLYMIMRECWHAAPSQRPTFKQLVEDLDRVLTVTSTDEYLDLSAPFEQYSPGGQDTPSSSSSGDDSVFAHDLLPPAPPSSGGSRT
In short: as §1

FLT1 (VEGFR1) = target: T12, FLT1 (VEGFR1) (Homo sapiens, UniProt P17948); conditions: ATP Km, read-out: Percentage of inhibition
T12 construct: purchased Life Technologies (SelectScreen Whole Panel service)
In short: as §1

HIPK1 (Myak) = HIPK1 (Myak) (Homo sapiens, UniProt Q86Z02); conditions: ATP Km, read-out: Percentage of inhibition
In short: as §1

LYN A = target: T13, LYN A (Homo sapiens, UniProt P07948); conditions: ATP Km, read-out: Percentage of inhibition
T13 construct: purchased Life Technologies (SelectScreen Whole Panel)
In short: as §1

MAP2K2 (MEK2) = target: T14, MAP2K2 (MEK2) (Homo sapiens, UniProt P36507); conditions: ATP 100 µM, read-out: Percentage of inhibition
T14 construct: purchased Life Technologies
In short: as §1

MAP2K6 (MKK6) = target: T15, MAP2K6 (MKK6) (Homo sapiens, UniProt P52564); conditions: ATP 100 µM, read-out: Percentage of inhibition
T15 construct: purchased Life Technologies (SelectScreen Whole Panel service)
In short: as §1

MAP3K8 (COT) = target: T16, MAP3K8 (COT) (Homo sapiens, UniProt P41279); conditions: ATP 100 µM, read-out: Percentage of inhibition
T16 construct: purchased Life Technologies (SelectScreen service)
In short: as §1

MAPKAPK3 = target: T17, MAPKAPK3 (Homo sapiens, UniProt Q16644); conditions: ATP Km, read-out: Percentage of inhibition
T17 construct: purchased Life Technologies
In short: as §1

MET (cMet) Y1235D = target: T18, MET (cMet) Y1235D (Homo sapiens, UniProt P08581, Y1235D); conditions: ATP Km, read-out: Percentage of inhibition
T18 construct: purchased Life Technologies
In short: as §1

MET M1250T = target: T19, MET M1250T (Homo sapiens, UniProt P08581, M1250T); conditions: ATP Km, read-out: Percentage of inhibition
T19 construct: purchased Life Technologies (SelectScreen Whole Panel service)
In short: as §1

NTRK1 (TRKA) = NTRK1 (TRKA) (Homo sapiens, UniProt P04629); conditions: ATP Km, read-out: Percentage of inhibition
NTRK1 (TRKA), sequence (P04629 33-796): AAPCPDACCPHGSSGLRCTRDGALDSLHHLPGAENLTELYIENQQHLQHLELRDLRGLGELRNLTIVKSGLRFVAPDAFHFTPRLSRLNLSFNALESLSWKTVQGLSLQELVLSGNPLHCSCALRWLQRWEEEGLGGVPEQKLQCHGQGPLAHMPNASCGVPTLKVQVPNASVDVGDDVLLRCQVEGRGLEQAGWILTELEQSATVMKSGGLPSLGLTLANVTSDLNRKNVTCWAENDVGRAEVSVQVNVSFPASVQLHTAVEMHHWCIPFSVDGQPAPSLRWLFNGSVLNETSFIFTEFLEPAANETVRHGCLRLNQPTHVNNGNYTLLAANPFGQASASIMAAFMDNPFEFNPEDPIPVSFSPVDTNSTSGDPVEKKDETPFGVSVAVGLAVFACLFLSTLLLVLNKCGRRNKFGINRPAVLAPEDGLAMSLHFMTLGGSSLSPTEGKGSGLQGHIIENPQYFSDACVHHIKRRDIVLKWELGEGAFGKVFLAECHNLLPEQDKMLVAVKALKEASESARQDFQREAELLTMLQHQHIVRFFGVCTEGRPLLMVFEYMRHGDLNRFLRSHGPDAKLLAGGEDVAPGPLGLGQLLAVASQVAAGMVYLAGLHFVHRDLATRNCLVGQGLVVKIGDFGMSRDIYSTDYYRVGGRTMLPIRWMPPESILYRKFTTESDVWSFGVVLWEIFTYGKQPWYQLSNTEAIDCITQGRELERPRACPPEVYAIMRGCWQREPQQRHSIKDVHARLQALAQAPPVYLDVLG
In short: as §1

PAK1 = PAK1 (Homo sapiens, UniProt Q13153); conditions: ATP Km, read-out: Percentage of inhibition
PAK1, sequence (Q13153 whole entry): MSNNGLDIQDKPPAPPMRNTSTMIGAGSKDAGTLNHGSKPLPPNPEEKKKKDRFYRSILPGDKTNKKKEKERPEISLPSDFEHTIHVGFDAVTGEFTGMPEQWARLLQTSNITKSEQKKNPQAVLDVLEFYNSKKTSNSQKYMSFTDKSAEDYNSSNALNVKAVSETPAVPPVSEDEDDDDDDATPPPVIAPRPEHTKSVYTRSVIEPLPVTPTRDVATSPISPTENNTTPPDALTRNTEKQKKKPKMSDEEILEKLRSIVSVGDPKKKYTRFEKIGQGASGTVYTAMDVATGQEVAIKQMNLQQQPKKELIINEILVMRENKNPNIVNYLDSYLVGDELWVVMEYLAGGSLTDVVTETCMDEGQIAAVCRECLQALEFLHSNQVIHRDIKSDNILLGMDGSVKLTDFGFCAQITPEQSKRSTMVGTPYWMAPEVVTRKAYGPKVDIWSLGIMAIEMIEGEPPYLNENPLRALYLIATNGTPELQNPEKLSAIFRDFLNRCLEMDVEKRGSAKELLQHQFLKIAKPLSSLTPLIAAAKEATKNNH
In short: as §1

PAK2 (PAK65) = PAK2 (PAK65) (Homo sapiens, UniProt Q13177); conditions: ATP Km, read-out: Percentage of inhibition
In short: as §1

PKN1 (PRK1) = target: T20, PKN1 (PRK1) (Homo sapiens, UniProt Q16512); conditions: ATP Km, read-out: Percentage of inhibition
T20 construct: purchased Life Technologies
In short: as §1

PLK2 = target: T21, PLK2 (Homo sapiens, UniProt Q9NYY3); conditions: ATP Km, read-out: Percentage of inhibition
T21 construct: purchased Life Technologies (SelectScreen service)
T21 sequence (Q9NYY3 whole entry): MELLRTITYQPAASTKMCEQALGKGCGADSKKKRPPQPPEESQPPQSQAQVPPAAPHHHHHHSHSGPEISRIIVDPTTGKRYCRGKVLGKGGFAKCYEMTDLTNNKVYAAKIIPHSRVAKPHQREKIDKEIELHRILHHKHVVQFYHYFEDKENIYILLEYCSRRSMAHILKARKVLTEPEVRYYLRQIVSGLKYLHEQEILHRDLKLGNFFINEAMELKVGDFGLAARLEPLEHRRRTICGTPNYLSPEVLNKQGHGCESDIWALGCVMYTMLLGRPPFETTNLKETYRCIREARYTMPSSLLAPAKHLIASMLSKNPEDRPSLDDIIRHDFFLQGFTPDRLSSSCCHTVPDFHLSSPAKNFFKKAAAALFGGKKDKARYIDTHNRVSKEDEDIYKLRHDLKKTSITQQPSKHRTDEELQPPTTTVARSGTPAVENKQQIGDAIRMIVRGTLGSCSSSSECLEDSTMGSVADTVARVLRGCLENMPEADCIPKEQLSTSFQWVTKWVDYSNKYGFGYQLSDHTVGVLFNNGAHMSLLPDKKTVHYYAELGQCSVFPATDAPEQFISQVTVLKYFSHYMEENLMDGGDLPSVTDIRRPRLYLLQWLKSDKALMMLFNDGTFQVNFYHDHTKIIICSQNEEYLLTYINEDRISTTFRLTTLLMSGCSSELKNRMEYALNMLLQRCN
In short: as §1

PRKCB2 (PKC beta II) = PRKCB2 (PKC beta II) (Homo sapiens, UniProt P05771); conditions: ATP Km, read-out: Percentage of inhibition
In short: as §1

PRKD1 (PKC mu) = target: T22, PRKD1 (PKC mu) (Homo sapiens, UniProt Q15139); conditions: ATP Km, read-out: Percentage of inhibition
T22 construct: purchased Life Technologies (SelectScreen Whole Panel service)
In short: as §1

RET V804E = target: T23, RET V804E (Homo sapiens, UniProt P07949, V804E); conditions: ATP Km, read-out: Percentage of inhibition
T23 construct: purchased Life Technologies (SelectScreen service)
In short: as §1

RPS6KA2 (RSK3) = target: T24, RPS6KA2 (RSK3) (Homo sapiens, UniProt Q15349); conditions: ATP Km, read-out: Percentage of inhibition
T24 construct: purchased Life Technologies (SelectScreen service)
T24 sequence (Q15349 whole entry): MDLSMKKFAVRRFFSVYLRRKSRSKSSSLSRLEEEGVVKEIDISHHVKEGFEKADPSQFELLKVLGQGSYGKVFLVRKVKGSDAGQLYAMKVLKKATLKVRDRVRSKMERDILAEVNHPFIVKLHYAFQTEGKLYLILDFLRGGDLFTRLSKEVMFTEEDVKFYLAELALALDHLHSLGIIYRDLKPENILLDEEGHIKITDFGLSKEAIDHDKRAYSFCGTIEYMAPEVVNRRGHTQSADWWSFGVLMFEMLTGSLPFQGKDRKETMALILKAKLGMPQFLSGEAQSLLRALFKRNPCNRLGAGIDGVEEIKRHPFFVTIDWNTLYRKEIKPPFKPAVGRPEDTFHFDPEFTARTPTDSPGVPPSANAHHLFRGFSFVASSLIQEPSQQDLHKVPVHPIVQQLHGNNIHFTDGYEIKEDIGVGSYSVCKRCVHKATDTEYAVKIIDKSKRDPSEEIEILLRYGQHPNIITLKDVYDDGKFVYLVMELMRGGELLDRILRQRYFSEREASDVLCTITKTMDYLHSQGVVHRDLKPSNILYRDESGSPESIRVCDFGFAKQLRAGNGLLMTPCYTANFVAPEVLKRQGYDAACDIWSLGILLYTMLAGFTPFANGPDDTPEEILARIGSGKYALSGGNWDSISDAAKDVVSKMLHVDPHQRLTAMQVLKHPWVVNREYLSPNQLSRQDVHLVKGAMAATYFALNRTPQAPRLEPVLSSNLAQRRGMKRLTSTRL
In short: as §1

RPS6KA3 (RSK2) = target: T25, RPS6KA3 (RSK2) (Homo sapiens, UniProt P51812); conditions: ATP Km, read-out: Percentage of inhibition
T25 construct: purchased Life Technologies (SelectScreen service)
In short: as §1

RPS6KA5 (MSK1) = target: T26, RPS6KA5 (MSK1) (Homo sapiens, UniProt O75582); conditions: ATP Km, read-out: Percentage of inhibition
T26 construct: purchased Life Technologies
In short: as §1

RPS6KB2 (p70S6Kb) = target: T27, RPS6KB2 (p70S6Kb) (Homo sapiens, UniProt Q9UBS0); conditions: ATP Km, read-out: Percentage of inhibition
T27 construct: purchased Life Technologies (SelectScreen)
In short: as §1

SBK1 = target: T28, SBK1 (Homo sapiens, UniProt Q52WX2); conditions: ATP Km, read-out: Percentage of inhibition
T28 construct: purchased Life Technologies (SelectScreen Whole Panel)
T28 sequence (Q52WX2 whole entry): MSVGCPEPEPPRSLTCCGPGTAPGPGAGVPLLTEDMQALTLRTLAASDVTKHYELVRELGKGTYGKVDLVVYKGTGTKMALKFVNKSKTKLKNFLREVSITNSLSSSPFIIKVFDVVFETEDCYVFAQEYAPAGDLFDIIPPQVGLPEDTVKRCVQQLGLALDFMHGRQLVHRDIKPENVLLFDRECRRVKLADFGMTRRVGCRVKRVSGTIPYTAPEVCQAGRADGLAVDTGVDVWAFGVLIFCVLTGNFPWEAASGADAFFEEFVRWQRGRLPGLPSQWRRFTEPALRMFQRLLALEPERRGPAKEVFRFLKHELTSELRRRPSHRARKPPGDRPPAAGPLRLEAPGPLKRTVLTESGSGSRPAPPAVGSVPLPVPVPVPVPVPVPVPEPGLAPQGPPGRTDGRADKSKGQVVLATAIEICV
In short: as §1

STK24 (MST3) = STK24 (MST3) (Homo sapiens, UniProt Q9Y6E0); conditions: ATP Km, read-out: Percentage of inhibition
In short: as §1

Structure (SMILES): COc1ccc2[nH]c3c(=O)[nH]c4ccc(O)cc4c3c2c1 [Compound 55, 2-Hydroxy-10-methoxy-5,7-dihydro-6H-indolo[2,3-c]quinolin-6-one]
- inhibition at 1 µM (ABL1): 43%
- inhibition at 1 µM (ADRBK2 (GRK3)): 0%
- inhibition at 1 µM (AMPK (A1/B2/G2)): 67%
- inhibition at 1 µM (AMPK (A1/B2/G3)): 67%
- inhibition at 1 µM (AMPK (A2/B1/G2)): 63%
- inhibition at 1 µM (AURKB (Aurora B)): 41%
- inhibition at 1 µM (AXL): 37%
- inhibition at 1 µM (BRAF): 100%
- inhibition at 1 µM (CAMK1D (CaMKI delta)): 8%
- inhibition at 1 µM (CAMK2D (CaMKII delta)): 50%
- inhibition at 1 µM (CSF1R (FMS)): 63%
- inhibition at 1 µM (EPHA8): 10%
- inhibition at 1 µM (EPHB1): 49%
- inhibition at 1 µM (FGFR2 N549H): 24%
- inhibition at 1 µM (FGFR3 V555M): 46%
- inhibition at 1 µM (FLT1 (VEGFR1)): 10%
- inhibition at 1 µM (HIPK1 (Myak)): 58%
- inhibition at 1 µM (LYN A): 49%
- inhibition at 1 µM (MAP2K2 (MEK2)): 87%
- inhibition at 1 µM (MAP2K6 (MKK6)): 11%
- inhibition at 1 µM (MAP3K8 (COT)): 91%
- inhibition at 1 µM (MAPKAPK3): 3%
- inhibition at 1 µM (MET (cMet) Y1235D): 2%
- inhibition at 1 µM (MET M1250T): 12%
- inhibition at 1 µM (NTRK1 (TRKA)): 69%
- inhibition at 1 µM (PAK1): 6%
- inhibition at 1 µM (PAK2 (PAK65)): 6%
- inhibition at 1 µM (PKN1 (PRK1)): 4%
- inhibition at 1 µM (PLK2): 74%
- inhibition at 1 µM (PRKCB2 (PKC beta II)): 13%
- inhibition at 1 µM (PRKD1 (PKC mu)): 45%
- inhibition at 1 µM (RET V804E): 86%
- inhibition at 1 µM (RPS6KA2 (RSK3)): 88%
- inhibition at 1 µM (RPS6KA3 (RSK2)): 83%
- inhibition at 1 µM (RPS6KA5 (MSK1)): 28%
- inhibition at 1 µM (RPS6KB2 (p70S6Kb)): 8%
- inhibition at 1 µM (SBK1): 1%
- inhibition at 1 µM (STK24 (MST3)): 63%
